Laboratory results reported in PMC9842066, “Implantable device actuated by manual button clicks for noninvasive self‐drug administration” (Bioengineering & Translational Medicine, 2022).

Assays:
[1] = tested on: STZ-induced diabetic rats; assay: PD studies on insulin and glucagon delivery (plasma glucose); type: in vivo, Wistar rats; conditions: hyperglycemic STZ-induced Type 1 diabetic rats (>400 mg dl^−1); 1-U insulin by SC injection or BCD; n = 4 per group
Description: For this experiment, we employed a Type 1 diabetic animal model, streptozotocin (STZ)‐induced diabetic rats.[26], [28] To induce this animal model, Wistar rats were fasted overnight, and then intraperitoneally injected with a STZ solution (60 mg kg^−1) prepared in 0.09 M citrate buffered saline (pH 4.0) to destroy the beta‐cells of the pancreas. Three days after the STZ injection, the plasma glucose level was measured with a glucometer, and the animals with a plasma glucose level > 400 mg dl^−1 were screened for use. Among them, we employed two distinct animal models of hyperglycemia and hypoglycemia, respectively. For a hyperglycemic condition, the animals were used as they were with a blood glucose level of >400 mg dl^−1.[28], [29] For a hypoglycemic condition, the animals were fasted overnight and the ones with a plasma glucose level of <72 mg dl^−1 were screened for use.[30] The hyperglycemic animals were treated with 1‐U insulin by an SC injection or implanted BCD: Inj‐Insulin (n = 4) and BCD‐Insulin (n = 4), respectively. For this, we utilized a commercially available insulin solution (100 U ml^−1; NovoRapid, Novo Nordisk). […] After administration, the plasma glucose level was measured with a glucometer at scheduled times.

[2] = Stability assessment of exenatide and insulin in the BCD
Excerpt: Supplementary Figure 5. […] To obtain the CD spectra, the solution was placed in a 1-mm path length cuvette (Chirascan plus, Applied Photophysics, Surrey, UK) and scanned over range of 200-260 nm.

Q: Which “Change in plasma glucose level after insulin” value [1] does the source give for “insulin: commercially available insulin solution (100 U ml^−1; NovoRapid, Novo Nordisk)” here?
A: decrease

Q: And the “Stability during 4-week period in the BCD” value ([2]; 4 weeks, Figure S5)?
A: well retained

Q: What about the “Drop of blood glucose level with stored versus fresh insulin” value ([2]; insulin stored in BCD at 37 °C for 28 days, injected subcutaneously to diabetic animals, n = 3) of the same substance?
A: similar

Q: What about the “Drug content (HPLC) and far-UV CD spectra after incubation in the BCD” value ([2]; loaded BCDs stored at 37 °C for 28 days, versus fresh drug solution, n = 3, HPLC and CD 200-260 nm) of the same substance?
A: did not vary
